Test results: ChEMBL document CHEMBL1156346, “Cytotoxic and novel compounds from Solanum indicum” (J Nat Prod, 2001)

Tested on: OVCAR-3
Assay: Cytotoxicity against human OVCAR-3 cells
Format: functional, cell-based

Q: Which IC50 does the source give for `C=C(C)[C@@H]1CC[C@@]2(C1)C(C)=CC(=O)C[C@H]2C` [SOLAVETIVONE] here?
A: 100 µM
